The values below are quoted from earlier work in patent US8648072B2, “Cannabinoid receptor antagonists/inverse agonists useful for treating metabolic disorders, including obesity and diabetes” (Jenrin Discovery, Inc., priority 2009, dated 2014).

The data set concerns patients with type 2 diabetes. The note with it: after six months of treatment; baseline value of 7.9; placebo group 0.3%.

For the molecule `Cc1c(C(=O)NN2CCCCC2)nn(-c2ccc(Cl)cc2Cl)c1-c1ccc(Cl)cc1` [rimonabant], the HbA1c levels lowered is 0.8%.
